{"source": "paper PMC3789958", "about": "“A Bacterial Glucanotransferase Can Replace the Complex Maltose Metabolism Required for Starch to Sucrose Conversion in Leaves at Night*” (The Journal of Biological Chemistry, 2013)", "key": {"[1]": {"molecular_target": "T1, MalQ (Escherichia coli, UniProt P15977)", "T1 construct": "recombinant in E. coli, His-tagged, IMAC purified; biotinylated or amine-coupled for SPR", "T1 sequence (P15977 1-694)": "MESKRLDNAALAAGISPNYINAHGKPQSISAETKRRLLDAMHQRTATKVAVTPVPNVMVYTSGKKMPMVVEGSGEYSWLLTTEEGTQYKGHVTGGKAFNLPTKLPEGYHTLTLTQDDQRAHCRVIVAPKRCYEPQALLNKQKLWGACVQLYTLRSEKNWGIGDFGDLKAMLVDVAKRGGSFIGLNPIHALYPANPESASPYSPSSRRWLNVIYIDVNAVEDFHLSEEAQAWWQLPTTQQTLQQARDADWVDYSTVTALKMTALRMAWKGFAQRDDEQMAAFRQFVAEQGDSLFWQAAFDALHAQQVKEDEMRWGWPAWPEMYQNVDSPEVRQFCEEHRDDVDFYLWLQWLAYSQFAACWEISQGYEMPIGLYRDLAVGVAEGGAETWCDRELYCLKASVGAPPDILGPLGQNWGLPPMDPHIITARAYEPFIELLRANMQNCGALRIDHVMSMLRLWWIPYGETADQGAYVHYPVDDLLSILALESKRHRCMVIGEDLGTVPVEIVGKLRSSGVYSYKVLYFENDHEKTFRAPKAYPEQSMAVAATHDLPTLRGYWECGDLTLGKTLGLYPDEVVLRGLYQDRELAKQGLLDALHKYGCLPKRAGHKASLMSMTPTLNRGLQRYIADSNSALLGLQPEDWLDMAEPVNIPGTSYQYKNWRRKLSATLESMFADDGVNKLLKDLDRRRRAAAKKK", "test": "SPR, steady-state affinity fit, MalQ amine-coupled to CM5 chip", "format": "binding", "conditions": "10 mM HEPES pH 7.0, 25 °C; read-out: dissociation constant"}, "[2]": {"molecular_target": "T2, DPE2 (Arabidopsis thaliana, UniProt Q8RXD9)", "T2 construct": "recombinant in E. coli Rosetta II, pET151, N-terminal His6 tag removed with TEV protease; homodimer; biotinylated for SPR", "T2 sequence (Q8RXD9 1-955)": "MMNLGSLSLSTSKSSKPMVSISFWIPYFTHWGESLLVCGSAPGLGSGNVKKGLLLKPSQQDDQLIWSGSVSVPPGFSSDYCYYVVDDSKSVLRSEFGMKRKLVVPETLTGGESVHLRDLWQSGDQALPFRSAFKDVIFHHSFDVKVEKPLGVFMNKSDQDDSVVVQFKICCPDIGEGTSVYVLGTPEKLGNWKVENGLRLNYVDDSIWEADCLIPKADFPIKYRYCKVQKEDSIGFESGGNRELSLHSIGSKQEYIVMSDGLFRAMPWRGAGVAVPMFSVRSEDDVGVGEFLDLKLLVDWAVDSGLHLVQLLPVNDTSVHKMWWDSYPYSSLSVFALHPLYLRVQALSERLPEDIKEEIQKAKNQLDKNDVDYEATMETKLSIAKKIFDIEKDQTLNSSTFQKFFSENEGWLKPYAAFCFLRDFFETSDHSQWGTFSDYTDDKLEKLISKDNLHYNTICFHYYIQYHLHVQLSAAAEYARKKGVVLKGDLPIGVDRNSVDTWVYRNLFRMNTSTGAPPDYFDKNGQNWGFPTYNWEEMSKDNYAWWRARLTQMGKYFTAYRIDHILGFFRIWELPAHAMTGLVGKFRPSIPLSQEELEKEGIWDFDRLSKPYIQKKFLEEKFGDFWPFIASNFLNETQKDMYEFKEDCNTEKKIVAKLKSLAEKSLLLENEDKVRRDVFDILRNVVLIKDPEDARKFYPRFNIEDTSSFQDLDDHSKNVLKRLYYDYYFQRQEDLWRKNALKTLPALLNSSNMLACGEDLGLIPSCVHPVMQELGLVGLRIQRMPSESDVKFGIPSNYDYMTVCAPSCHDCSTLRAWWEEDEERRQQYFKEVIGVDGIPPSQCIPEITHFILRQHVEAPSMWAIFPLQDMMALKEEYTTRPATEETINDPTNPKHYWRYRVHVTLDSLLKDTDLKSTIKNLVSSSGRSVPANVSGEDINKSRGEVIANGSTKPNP", "test": "SPR, steady-state affinity fit, biotinylated protein on streptavidin chip", "format": "binding", "conditions": "10 mM HEPES pH 7.0, 25 °C"}, "[3]": {"molecular_target": "T1, MalQ", "test": "SPR, steady-state affinity fit, biotinylated protein on streptavidin chip", "format": "binding", "conditions": "10 mM HEPES pH 7.0, 25 °C"}, "[4]": {"molecular_target": "T2, DPE2", "test": "coupled hexokinase / glucose-6-phosphate dehydrogenase assay, Hanes plot", "format": "biochemical", "conditions": "maltose as donor, glycogen as acceptor; two separate preparations; pH 7.9, 1 mM MgCl2"}, "[5]": {"molecular_target": "T1, MalQ", "test": "coupled hexokinase / glucose-6-phosphate dehydrogenase assay, Hanes plot", "format": "biochemical", "conditions": "maltose as donor, Glc7 as acceptor; two separate preparations; pH 7.9, 1 mM MgCl2"}, "[6]": {"molecular_target": "the molecule itself", "test": "SEC; Superdex S-200 16/60 in 25 mM HEPES (pH 7.5), 50 mM NaCl; purified DPE2 after His tag cleavage; elution compared with molecular mass markers"}}, "data": [{"molecule": "OC[C@H]1O[C@H](O[C@H]2[C@H](O)[C@@H](O)[C@@H](O[C@H]3[C@H](O)[C@@H](O)C(O)O[C@@H]3CO)O[C@@H]2CO)[C@H](O)[C@@H](O)[C@@H]1O", "note": "(stereo partly drawn) [Glc3]", "values": [{"measurement": "Kd", "setting": "[1]", "result": 260, "unit": "nM"}]}, {"molecule": "OC[C@H]1O[C@H](O[C@H]2[C@H](O)[C@@H](O)[C@@H](O[C@H]3[C@H](O)[C@@H](O)[C@@H](O[C@H]4[C@H](O)[C@@H](O)C(O)O[C@@H]4CO)O[C@@H]3CO)O[C@@H]2CO)[C@H](O)[C@@H](O)[C@@H]1O", "note": "(stereo partly drawn) [Glc4]", "values": [{"measurement": "Kd", "setting": "[1]", "result": 410, "unit": "nM"}, {"measurement": "dissociation constant", "setting": "[2]", "result": "bound malto-oligosaccharides Glc5, Glc6, and Glc7 more strongly than Glc4"}]}, {"molecule": "OC[C@H]1O[C@H](O[C@H]2[C@H](O)[C@@H](O)[C@@H](O[C@H]3[C@H](O)[C@@H](O)[C@@H](O[C@H]4[C@H](O)[C@@H](O)[C@@H](O[C@H]5[C@H](O)[C@@H](O)C(O)O[C@@H]5CO)O[C@@H]4CO)O[C@@H]3CO)O[C@@H]2CO)[C@H](O)[C@@H](O)[C@@H]1O", "note": "(stereo partly drawn) [Glc5]", "values": [{"measurement": "dissociation constant", "setting": "[2]", "result": "bound malto-oligosaccharides Glc5, Glc6, and Glc7 more strongly than Glc4"}, {"measurement": "dissociation constant", "setting": "[3]", "result": "progressively lower affinities for Glc5, Glc6, and Glc7"}]}, {"molecule": "OC[C@H]1O[C@H](O[C@H]2[C@H](O)[C@@H](O)[C@@H](O[C@H]3[C@H](O)[C@@H](O)[C@@H](O[C@H]4[C@H](O)[C@@H](O)[C@@H](O[C@H]5[C@H](O)[C@@H](O)[C@@H](O[C@H]6[C@H](O)[C@@H](O)C(O)O[C@@H]6CO)O[C@@H]5CO)O[C@@H]4CO)O[C@@H]3CO)O[C@@H]2CO)[C@H](O)[C@@H](O)[C@@H]1O", "note": "(stereo partly drawn) [Glc6]", "values": [{"measurement": "dissociation constant", "setting": "[2]", "result": "bound malto-oligosaccharides Glc5, Glc6, and Glc7 more strongly than Glc4"}, {"measurement": "dissociation constant", "setting": "[3]", "result": "progressively lower affinities for Glc5, Glc6, and Glc7"}]}, {"molecule": "OC[C@H]1O[C@H](O[C@H]2[C@H](O)[C@@H](O)[C@@H](O[C@H]3[C@H](O)[C@@H](O)[C@@H](O[C@H]4[C@H](O)[C@@H](O)[C@@H](O[C@H]5[C@H](O)[C@@H](O)[C@@H](O[C@H]6[C@H](O)[C@@H](O)[C@@H](O[C@H]7[C@H](O)[C@@H](O)C(O)O[C@@H]7CO)O[C@@H]6CO)O[C@@H]5CO)O[C@@H]4CO)O[C@@H]3CO)O[C@@H]2CO)[C@H](O)[C@@H](O)[C@@H]1O", "note": "(stereo partly drawn) [Glc7]", "values": [{"measurement": "dissociation constant", "setting": "[2]", "result": "bound malto-oligosaccharides Glc5, Glc6, and Glc7 more strongly than Glc4"}, {"measurement": "dissociation constant", "setting": "[3]", "result": "progressively lower affinities for Glc5, Glc6, and Glc7"}]}, {"molecule": "OC[C@H]1O[C@H](O[C@H]2[C@H](O)[C@@H](O)C(O)O[C@@H]2CO)[C@H](O)[C@@H](O)[C@@H]1O", "note": "(stereo partly drawn) [maltose]", "values": [{"measurement": "Km", "setting": "[4]", "result": "2.9 and 2.3 mM"}, {"measurement": "Km", "setting": "[5]", "result": "2.1 and 1.9 mM"}]}, {"molecule": "DPE2 (4-alpha-glucanotransferase, disproportionating enzyme 2) from Arabidopsis, recombinant (enzyme, Arabidopsis thaliana, UniProt Q8RXD9 1-955, looked up, DPE2, cytosolic 4-alpha-glucanotransferase of Arabidopsis thaliana, At2g40840; also called native DPE2; recombinant DPE2; source: E. coli Rosetta II, purified (nickel IMAC, TEV protease treatment, second IMAC, Superdex S-200); not shown: His6, N-terminal, cleaved) MMNLGSLSLSTSKSSKPMVSISFWIPYFTHWGESLLVCGSAPGLGSGNVKKGLLLKPSQQDDQLIWSGSVSVPPGFSSDYCYYVVDDSKSVLRSEFGMKRKLVVPETLTGGESVHLRDLWQSGDQALPFRSAFKDVIFHHSFDVKVEKPLGVFMNKSDQDDSVVVQFKICCPDIGEGTSVYVLGTPEKLGNWKVENGLRLNYVDDSIWEADCLIPKADFPIKYRYCKVQKEDSIGFESGGNRELSLHSIGSKQEYIVMSDGLFRAMPWRGAGVAVPMFSVRSEDDVGVGEFLDLKLLVDWAVDSGLHLVQLLPVNDTSVHKMWWDSYPYSSLSVFALHPLYLRVQALSERLPEDIKEEIQKAKNQLDKNDVDYEATMETKLSIAKKIFDIEKDQTLNSSTFQKFFSENEGWLKPYAAFCFLRDFFETSDHSQWGTFSDYTDDKLEKLISKDNLHYNTICFHYYIQYHLHVQLSAAAEYARKKGVVLKGDLPIGVDRNSVDTWVYRNLFRMNTSTGAPPDYFDKNGQNWGFPTYNWEEMSKDNYAWWRARLTQMGKYFTAYRIDHILGFFRIWELPAHAMTGLVGKFRPSIPLSQEELEKEGIWDFDRLSKPYIQKKFLEEKFGDFWPFIASNFLNETQKDMYEFKEDCNTEKKIVAKLKSLAEKSLLLENEDKVRRDVFDILRNVVLIKDPEDARKFYPRFNIEDTSSFQDLDDHSKNVLKRLYYDYYFQRQEDLWRKNALKTLPALLNSSNMLACGEDLGLIPSCVHPVMQELGLVGLRIQRMPSESDVKFGIPSNYDYMTVCAPSCHDCSTLRAWWEEDEERRQQYFKEVIGVDGIPPSQCIPEITHFILRQHVEAPSMWAIFPLQDMMALKEEYTTRPATEETINDPTNPKHYWRYRVHVTLDSLLKDTDLKSTIKNLVSSSGRSVPANVSGEDINKSRGEVIANGSTKPNP", "values": [{"measurement": "stoichiometry N", "setting": "[6]", "result": 2}]}]}
